Reference: PubChem BioAssay AID1963421 (Molecular Pharmacology Branch, DTP, NCI, 2024)
Where “and” joins values, the source holds several entries; their conditions need not be identical. Identical values can stand only once.

Test system: 519858-162-T-J1-PDC complex spheroid growth, % test/control
Experiment: Anticancer human tumor 519858-162-T-J1-PDC patient-derived colon adenocarcinoma cell line growth inhibition [Asc]
Details: for viability, T/C: stronger effect = lower value
Summary of the method: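 Concentration series start at each agent's clinical Cmax, or at 10 microM when none is established, and drop in half-log steps; agents are applied alone or together to complex spheroids built with HUVEC and hMSC.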
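Further: seven day drug exposure begun three days after spheroid seeding.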
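Wherever viability, T/C is given: 100% = DMSO vehicle wells and lower values mean less viable spheroid.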

## C=CC(=O)N1CCN(c2nc(=O)n(-c3c(C)ccnc3C(C)C)c3nc(-c4c(O)cccc4F)c(F)cc23)C(C)C1 (centres undefined) + CCN1C(C(=O)NC23CCC(C(=O)O)(CC2)CC3)C(c2cccc(Cl)c2F)C2(C(=O)Nc3cc(Cl)ccc32)C12CCCCC2
Curve of first compound, second compound 0.00949 µM
  IC50: > 10 µM
Curve of first compound, second compound 0.03 µM
  IC50: > 10 µM
Curve of first compound, second compound 0.0949 µM
  IC50: > 10 µM
Curve of first compound, second compound 0.3 µM
  IC50: > 10 µM
Curve of first compound, second compound 0.949 µM
  IC50: > 10 µM
Curve of first compound, second compound 3 µM
  IC50: > 10 µM
Second compound 0.00949 µM, first compound 0.0316 µM
  viability, T/C: 147%
Second compound 0.00949 µM, first compound 0.1 µM
  viability, T/C: 110%
Second compound 0.00949 µM, first compound 0.316 µM
  viability, T/C: 97.8%
Second compound 0.00949 µM, first compound 1 µM
  viability, T/C: 108%
Second compound 0.00949 µM, first compound 3.16 µM
  viability, T/C: 99.4%
Second compound 0.00949 µM, first compound 10 µM
  viability, T/C: 82%
Second compound 0.03 µM, first compound 0.0316 µM
  viability, T/C: 112%
Second compound 0.03 µM, first compound 0.1 µM
  viability, T/C: 87.7%
Second compound 0.03 µM, first compound 0.316 µM
  viability, T/C: 115%
Second compound 0.03 µM, first compound 1 µM
  viability, T/C: 91.9%
Second compound 0.03 µM, first compound 3.16 µM
  viability, T/C: 75.2%
Second compound 0.03 µM, first compound 10 µM
  viability, T/C: 79.7%
Second compound 0.0949 µM, first compound 0.0316 µM
  viability, T/C: 92.7%
Second compound 0.0949 µM, first compound 0.1 µM
  viability, T/C: 106%
Second compound 0.0949 µM, first compound 0.316 µM
  viability, T/C: 85.3%
Second compound 0.0949 µM, first compound 1 µM
  viability, T/C: 99.5%
Second compound 0.0949 µM, first compound 3.16 µM
  viability, T/C: 89.6%
Second compound 0.0949 µM, first compound 10 µM
  viability, T/C: 87.8%
Second compound 0.3 µM, first compound 0.0316 µM
  viability, T/C: 88.7%
Second compound 0.3 µM, first compound 0.1 µM
  viability, T/C: 89.3%
Second compound 0.3 µM, first compound 0.316 µM
  viability, T/C: 112%
Second compound 0.3 µM, first compound 1 µM
  viability, T/C: 90%
Second compound 0.3 µM, first compound 3.16 µM
  viability, T/C: 106%
Second compound 0.3 µM, first compound 10 µM
  viability, T/C: 116%
Second compound 0.949 µM, first compound 0.0316 µM
  viability, T/C: 114%
Second compound 0.949 µM, first compound 0.1 µM
  viability, T/C: 78.7%
Second compound 0.949 µM, first compound 0.316 µM
  viability, T/C: 111%
Second compound 0.949 µM, first compound 1 µM
  viability, T/C: 70.8%
Second compound 0.949 µM, first compound 3.16 µM
  viability, T/C: 86.1%
Second compound 0.949 µM, first compound 10 µM
  viability, T/C: 70%
Second compound 3 µM, first compound 0.0316 µM
  viability, T/C: 86.9%
Second compound 3 µM, first compound 0.1 µM
  viability, T/C: 81.7%
Second compound 3 µM, first compound 0.316 µM
  viability, T/C: 87%
Second compound 3 µM, first compound 1 µM
  viability, T/C: 75.1%
Second compound 3 µM, first compound 3.16 µM
  viability, T/C: 74.9%
Second compound 3 µM, first compound 10 µM
  viability, T/C: 91.7%

## O=C(c1cc(Cc2n[nH]c(=O)c3ccccc23)ccc1F)N1CCN(C(=O)C2CC2)CC1
Compound 0.0316 µM
  viability, T/C: 80.7% and 96.9% and 79.1%
Compound 0.1 µM
  viability, T/C: 93.5% and 79.1% and 92.7%
Compound 0.316 µM
  viability, T/C: 80.5% and 81.3% and 77.4%
Compound 1 µM
  viability, T/C: 96.3% and 112% and 117%
Compound 3.16 µM
  viability, T/C: 97.3% and 89.7% and 106%
Compound 10 µM
  viability, T/C: 94.3% and 70.3% and 86.1%
Curve of compound
  IC50: > 10 µM
